Test results: US5519115A, “Reverse antimicrobial peptides” (priority 1993, dated 1996)
Like-named read-outs stand apart in the source and are kept apart here. Ends that are not written are not given here.

Columns and labels:
isolated chloroplasts = experiment: Oxygen evolution bioassay, phytotoxicity (isolated chloroplasts); type: cell-based, Spinach (Spinacia oleracea L. var. Melody); settings: for inhibition of oxygen evolution: 8 uM
Description: The following procedure for the preparation of chloroplasts to use in an oxygen electrode is similar to that of Gupta et al., "Development and Use of Chlorotetracycline Fluorescence as a Measurement Assay of Chloroplast Envelope-Bound Mg^2+, "Plant Physiol. 89, (1989) 753-761. Spinach (Spinacia oleracea L. var. `Melody`) was grown in 1:1 peat/vermiculite potting mix in a growth chamber with a 10 hour light period. The chamber temperature was maintained at 21° C. (day) and 16° C. (night) during the growth period. All plants were used for chloroplast isolation after 6-8 weeks of growth.
In order to obtain an enriched chloroplast fraction, about 12 g of deribbed spinach leaves were thoroughly washed and surface dried. The leaves were then cut into small pieces, each about 1/2 inch square, and were placed in a small blender jar containing 50 mL of chilled homogenization medium (0.33M sorbitol, 50 mM Hepes-NaOH, pH 6.8, 2mM Na2 EDTA, 1 mM MnCl2, 1 mM MgCl2). The tissue was blended twice for three second intervals on high speed in a blender. The resulting homogenate was filtered through four layers of cheesecloth and two layers of miracloth (Behring Diagnostics, La Jolla, Calif.) into two chilled 30 mL glass centrifuge tubes. The filtered solution was centrifuged for 1.0 minute at 750 g (2,200 RPM) in a JS 13.1 swinging bucket rotor in a Beckman J2-21M centrifuge (Beckman Instruments, Inc., Somerset, N.J.). The supernatant was then decanted and the pellet was gently resuspended by swirling at 0° C. About 15 mL of homogenization medium was added to each tube of chloroplasts before the chloroplasts were layered onto a 40% Percoll gradient (6 mL Percoll, 9 mL homogenization medium, and 0.03 g bovine serum albumin) in a 30 mL glass centrifuge tube. These tubes were centrifuged for 4.0 minutes at 2500 g (4000 RPM) in a JS 13.1 swinging bucket rotor in a Beckman J2-21M centrifuge. The supernatant was removed and the resulting pellet was resuspended in a small amount of homogenization medium (about 500 microliters).
Plastid concentration was generally expressed on a chlorophyll basis. Chlorophyll was determined by the method of Arnon "Copper Enzymes in Isolated Chloroplasts, Polyphenol Oxidase in Beta Vulgaris," Plant Physiol. 24, (1949) 1-15. About 50 microliters of chloroplast stock suspension was added to 10 mL of 80% acetone and this solution was incubated 5.0 minutes in the dark and then centrifuged for 5.0 minutes at 500 g (1630 RPM) in a Beckman GP centrifuge. The absorbance of the acetone-chloroplast solution was monitored at 645 nm, at 663 nm and at 730 nm. The chlorophyll concentration was then calculated as 10× [(absorbance at 645 nm×20.2)+(absorbance at 663 nm×8.02)--background at 730 nm]. This gave the amount of chlorophyll in micrograms for the original 50 microliters of chloroplasts. The concentration of chloroplasts was then adjusted with homogenization medium so that 50 microliters of suspension contained 26 micrograms of chlorophyll. These chloroplasts were only active for 11/2 to 2 hours and were therefore used immediately.
An oxygen electrode (Hansatech Instruments Ltd., Kings Lynn, Norfolk, England) was used to measure oxygen evolution from isolated chloroplasts. For a detailed discussion of the method see, D. Walker, "The Use of the Oxygen Electrode and Fluorescence Probes in Simple Measurements of Photosynthesis," supra. A saturated KCl solution was placed in the electrode well and a one-inch square of rolling paper or lens paper was placed in to the electrode well so that it soaked up KCl and formed an ionic bridge. A one-inch square of teflon membrane was then prepared, being careful not to touch its surface, and was placed over the soaked paper. Using the membrane applicator, an O ring was placed over the head of the electrode, thereby securing paper and membrane across the electrode. The CB-1D control box was turned on and the system was allowed to warm up approximately one hour before calibration. […]

plant protease [1] = settings: cited from earlier work
[2] = system: maize BMS suspension cells; experiment: Whole cell phytotoxicity screening (oxygen consumption); type: cell-based
Description: Oxygen consumed by maize BMS suspension cells were determined as an indication of the relative phytotoxicity of antimicrobial peptides. Black Mexican Sweet (BMS) cell suspension cultures were maintained by transferring 25 mls of cell culture to 25 mls of fresh MSA2D media (4.4 g bottle of Murashige and Skoog basal salt mixture Sigma catalog No. M5524, 100 mg myoinositol, 150 mg L-asparagine, 30 g sucrose, 20 mls of 0.1 mg/ml 2.4-dichlorophenoxy acetic acid stock and 1 ml of vitamin stock consisting of 25 mg/100 ml calcium pantothenate, 50 mg/100 ml pyridoxine, 50 mg/100 ml nicotinic acid, 50 mg/100 ml thiamine, 200 mg/100 ml glycine all added to 1 liter sterile distilled water followed by autoclaving 25 minutes at 121° C.) in a capped sterile 250 ml Erlenmeyer flask 3 days after culture initiation. Four days later 12.5 mls of the cell culture was transferred to 35.5 mls of fresh MSA2D media. Cultures were continuously maintained by alternating 3 and 4 day transfer regimes. The cultures were shaken in low light at 125 RPM at room temperature. For oxygen consumption experiments cells were used one day after transferring to fresh media. Cells were poured into a sterile 50 ml centrifuge tube and allowed to settle by gravity. Spent media was drawn off and 7.8 mls of fresh MSA2D media was added per gram of settled cells. The cell stock solution was placed on a shaker for continued aeration and was used in all assays conducted on that day.
An oxygen electrode (Hansatech Limited, Kings' Lynn, Norfolk, England) was inspected to insure that no corrosion was present. A saturated KCl solution was then placed in the clean electrode well. A 1 inch square of rolling paper or lens paper was cut and placed over the well so that the edges of the paper soaked up KCl and formed an ionic bridge. A 1 inch square of teflon membrane was cut, being careful not to touch the surface, and placed over the soaked rolling paper. A membrane applicator was used to press an O-ring over the head of the electrode thereby securing paper and membrane across the electrode. The CB-1D control box (Hansatech Limited) was turned on and allowed to warm up approximately one hour before calibration. The CB-1D control box was set at 1X output. A chart recorder was set at 0.05 V input with a chart speed of 3 cm/min. A circulating water bath set at 20° C. was hooked up to the electrode chamber. The entire system was calibrated using air-saturated water obtained by vigorously shaking a wash bottle of distilled water. Using the gain switch, the output was set so that the pen on the chart recorder was at the maximum chart height (900=top). The oxygen concentration of air-saturated water was assumed to be 276 nmole/mL at 20° C. All air was removed from the water in the cuvette by adding 2-3 mg of sodium dithionite. The pen on the chart recorder responded by moving to the bottom of the graph. If the slope of the line was unstable, the membrane and rolling paper were removed and the set-up steps were repeated.
For a 1 mL assay, 888 uL water and 62.5 uL BMS stock cell suspension were added to the oxygen electrode cuvette. The final concentration of cells used in the assay was approximately 8 mg/mL. The rate of oxygen consumed by the cells was monitored on the chart recorder for 3 minutes. Fifty microliters of peptide was then added to the cuvette using a Hamilton syringe. (Peptide stocks were adjusted to deliver the desired concentration in a 50 uL volume). Oxygen consumption was monitored for 5 minutes after peptide addition. The time period for the complete test was 8 minutes.
The rate of suppression of oxygen consumption after the addition of a peptide was determined by comparing the slope of the line before the addition of the peptide to the slope of the line at a set time point after addition of the peptide. The rate of oxygen consumption after addition of the peptide was divided by the initial control rate of oxygen consumption and then multiplied by 100. […]

[3] = system: extracellular plant proteases; experiment: in vitro; settings: pH 7.4
Source text: In an attempt to determine the sensitivity of peptides to extracellular plant proteases, and to determine the site or sites of processing by these proteases, a system was designed to obtain extracellular fluid from leaves of maize, tobacco, or potato and to use these to test the stability of various peptides.
Extracellular fluid (ECF) was obtained by cutting interveinal pieces from tobacco leaf after they were rinsed in deionized water. The segments were submerged in water in a vacuum desicator and vacuum was applied for 5 to 10 min. The vacuum was released slowly, the leaves were blotted dry and 4 to 5 pieces were rolled and placed in a 50 mL disposable syringe barrel cut down so as to be able to fit in a swinging bucket centrigue rotor. The syringe barrel was placed in a 50 mL screw cap conical centrifuge tube and centrifuged in a swinging bucket rotor at 600×g for 30 min. The liquid was recovered and centrifuged in a microfuge for 10 min. The supernatant was stored at -80° C. and used in subsequent experiments.
To test the stability of a peptide to extracellular plant proteases, 10 ug of the peptide (1 mg/mL) was incubated with 10% extracellular fluid in 50 mM Tris HCL buffer, pH 7.4. The peptides tested were prepared or obtained as described in Examples 6, 13, and 14. After incubation at 37° C. for 0, 15, 30, 45 and 60 min the proteases were inactivated by the addition of trifluoroacetic acid (TFA) to 1% final concentration (v/v).
Peptides were analyzed by reverse phase chromatography on a 2.1×30 mm POROS R/H column (PerSpective Biosystems, Cambridge, Mass.) using a 5 to 35% acetonitrile gradient in 0.1% TFA on a Hewlett-Packard HP1090 high pressure liquid chromatograph (Hewlett Packard, Avondale, Pa.) at 3.5 mL/min.

plant protease [4] = system: plant protease
[5] = Phytotoxicity (method not given)
[6] = 10% extracellular fluid from tobacco leaf

Question: For “CGIGKFLREAGKFGKAFVGEIMKP [Peptide No. 13, Cys [Arg 7, Glu 8, Pro 23] Mag 1]”, which “inhibition of oxygen evolution” value (isolated chloroplasts) is on record?
Answer: Its value is 100%.

Question: For “GIGKFLHEAKKFGKAFVGEIMNS [Peptide No. 10, [Glu 8] Mag 2]”, which “decrease in the susceptibility to proteolytic degradation” value (plant protease [1]) is on record?
Answer: Its value is no less than 50%.

Question: Which “Percent Inhibition of Oxygen Consumption Caused by Addition of 4 μM Peptide” value (shortened to “Percent Inhibition”) [2] does the source give for “GIGKFLHSAGKFGKAFVGEIMKS [Peptide No. 2, Magainin 1]” here?
Answer: The value was 52 +/- 6%.

Question: And the “phytotoxic effect on whole cells, oxygen consumption (in words)” value (from here on “phytotoxic effect on whole cells”) [2]?
Answer: Its value is “greater overall phytotoxic effect on whole cells”.

Question: For “GIGKFLHSAKKFGKAFVGEIMNS [Peptide No. 1, Magainin 2]”, which remaining at 0.25 h [3, 6] is on record?
Answer: Its remaining at 0.25 h is 23%.

Question: And the remaining at 0.5 h [3, 6]?
Answer: The remaining at 0.5 h was 18%.

Question: What about the remaining at 0.75 h [3, 6] of the same substance?
Answer: The remaining at 0.75 h was 5.3%.

Question: And the remaining at 1 h [3, 6]?
Answer: Its remaining at 1 h is 0.5%.

Question: What about the “Percentage of Area Under the Parent Peak” value ([3]; Time 0 min, 10% extracellular fluid, 37° C.) of the same substance?
Answer: The value was 100 Percentage.

Question: What about the “phytotoxic effect on whole cells” value ([2]; Table V) of the same substance?
Answer: Its value is “much higher level of inhibition of oxygen consumption”.

Question: For “GIGKFLHSAKKFGKAFVGEIMNSGGGGGGIGKFLHSAKKFGKAFVGEIMNS [Peptide No. 6, Mag 2 dimer (bridged)]”, which “inhibition of oxygen evolution” value (isolated chloroplasts) is on record?
Answer: The value was 100%.

Question: With “GIGKFLHSAKKFGKAFVGEIMNSGIGKFLHSAKKFGKAFVGEIMNS [Peptide No. 5, (Mag 2)-(Mag 2)]” as the substance, how does the “Percent Inhibition” value [2] read?
Answer: Its value is 72 +/- 13%.

Question: What about the “phytotoxic effect on whole cells” value [2] of the same substance?
Answer: Its value is “no significantly different effect on phytotoxicity”.

Question: What about the “inhibition of oxygen evolution” value (isolated chloroplasts) of the same substance?
Answer: The value was 100%.

Question: For “KWKLFKKIEKVGQNIRDGIIKAGPAVAVVGQATQIAK-NH2 [Peptide No. 3, Cecropin A-NH2, reference compound]”, which “inhibition of oxygen evolution” value (isolated chloroplasts) is on record?
Answer: Its value is 100%.

Question: For “MGIGKFLREAGKFGKAFVGEIMKGIGKFLREAGKFGKAFVGEIMKP [Peptide No. 15, Head-to-tail peptide Nos. 11 and 12***]”, which “inhibition of oxygen evolution” value (isolated chloroplasts) is on record?
Answer: The value was 100%.

Question: With “SNMIEGVFAKGFKKASHLFKGIG [Peptide No. 8, Reverse Magainin 2]” as the substance, how does the “Percent Inhibition” value [2] read?
Answer: The value was 16 +/- 12%.

Question: And the “phytotoxicity effect compared to native Magainin 2 (in words)” value (isolated chloroplasts)?
Answer: The value was “extremely low Phytotoxicity effect”.

Question: Which “susceptibility to proteolysis (in words)” value (plant protease [4]) does the source give for “SWLSKTAKKLENSAKKRISEGIAIAIQGGPR [Peptide No. 4, P1]” here?
Answer: Its value is “very low”.

Question: What about the “phytotoxic effect on whole cells” value ([2]; Table V) of the same substance?
Answer: The value was “greater overall phytotoxic effect on whole cells”.

Question: What about the “phytotoxicity (in words)” value [5] of the same substance?
Answer: Its value is “very low”.
